Measured values: paper PMC7718273 (Scientific Reports, 2020)
“Also recorded” adds a separate entry of the source.

Columns and labels:
diet-induced obese mice = test system: diet-induced obese mice; parameters: method as in PMID 27689014; settings: cited from earlier work
CDAHFD NASH mouse model = experiment: In vivo study using CDAHFD mice (NASH model); parameters: species or system C57BL/6J mice; settings: positive control 3 mg/kg p.o. for 10 weeks
Description: C57BL/6J mice were fed normal chow diet (n = 5) or choline-deficient, L-amino acid-defined, high-fat diet (CDAHFD) for 4 weeks to induce NASH (n = 8–10/group). […] (a) Relative FAP activity was assessed by FRET-quench and serum FGF21 level at week 14. […] (c) Steatosis scores ranged from 0 to 3 (normal = 0, minimal = 1, moderate = 2, marked = 3) were determined. Hepatic steatosis and fibrosis (Picrosirius red stain) were analyzed in a blinded manner or by digital image analyzer. (d–e) Histological evaluations of liver tissue were performed in each group. Paraffin-embedded liver sections were stained with H&E (d) and Sirius red (e). Representative photographs of each group were presented. Images were obtained at 100x (Scale bar = 50 µm).
Male C57BL/6J mice (5 weeks of age) were fed with a CDAHFD consisting of 60% kcal fat and 0.1% methionine. […] For the CDAHFD model, compound treatments were started at the beginning of week 4 on the diet and continued until week 14. […] Liver tissue was then collected. All other measurements were done similarly as described above. Staining was performed using H&E and Picrosirius red as described previously. Areas of positive Sirius red were quantified by computer-based morphometric analysis.

ob/ob mice = experiment: Acute study using ob/ob mice: blood glucose and intact hFGF21; settings: hFGF21 0.1 mg/kg i.p. alone
Description: Blood was collected at the indicated time points. (a) Nonfasting blood glucose levels were measured at the indicated time points. […] (c) Plasma intact hFGF21 levels were measured using ELISA kit at 1, 3, 6, and 9 h. All data are the means ± S.D. *P < 0.05, **P < 0.01 and *** P < 0.001 vs. vehicle group.
Blood was promptly collected by orbital bleeding that was allowed to clot, and supernatant was collected after centrifugation at 4 °C at 3000 rpm. Serum intact FGF21 concentrations were measured by intact hFGF21 ELISA (Alpco, Keewaydin Dr, Salem, NH, catalog no. 43-FGFHU-E01)[29].

[1] = animals administered with Talabostat alone

Molecule: CC(C)[C@H](N)C(=O)N1CCC[C@H]1B(O)O [Talabostat]
- adiposity (diet-induced obese mice; [1]): decreased
- body weight (diet-induced obese mice; [1]): decreased
- food consumption (diet-induced obese mice; [1]): decreased
- endogenous intact FGF21 level (diet-induced obese mice; diet-induced obese mice): increased
- insulin resistance / insulin sensitivity (diet-induced obese mice; diet-induced obese mice): improved insulin resistance; also recorded: improved insulin sensitivity

Molecule: O=C(O)c1cc(F)c2nc(N3[C@@H]4CC[C@H]3C[C@@H](OCc3c(-c5ccccc5OC(F)(F)F)noc3C3CC3)C4)sc2c1 [LJN, Tropifexor, reference compound]
- all parameters of the CDAHFD study (CDAHFD NASH mouse model): All parameters showed improvements

B1: hFGF21: full-length recombinant human FGF21 from Cell Science, given i.p. alone or with BR103354 (protein, UniProt Q9NSA1 29-209, looked up)
Fibroblast growth factor 21: HPIPDSSPLLQFGGQVRQRYLYTDDAQQTEAHLEIREDGTVGGAADQSPESLLQLKALKPGVIQILGVKTSRFLCQRPDGALYGSLHFDPEACSFRELLLEDGYNVYQSEAHGLPLHLPGNKSPHRDPAPRGPARFLPLPGLPPALPEPPGILAPQPPDVGSSDPLSMVGPSQGRSPSYAS
- decrease of blood glucose AUC (ob/ob mice): about 20%
- nonfasting blood glucose level, maximum average reduction to (ob/ob mice; 3 h, starting from 340 mg/dL): 230 mg/dL
